This assay concerns Botrytis cinerea. Briefly: Activity against the grey mold Botrytis cinerea in the microtiterplate test. Type of assay: cell-based. The settings on record: comparative examples, measured at 405 nm 7 days after inoculation.

Structures are written as SMILES.

Regarding `Cc1cc(C2=NC(C)(C)Cc3ccccc32)cnc1C`, the “Growth (%) at 32 ppm” value stood at 51%.

For the molecule `Cc1cc(C2=NC(C)(C)C(C)c3ccccc32)cnc1C` (centres unmarked) [I-1, 1-(5,6-dimethyl-3-pyridyl)-3,3,4-trimethyl-4H-isoquinoline], the “Growth (%) at 32 ppm” value was found to be 0%.

The values above are taken from patent publication US20180279615A1 (priority 2015, published 2018).
